Read-outs that look alike come from different tables or passages of the source.
How the values were obtained:
Assay type in all cases: in vivo
Sitophilus granarius = test: Topical application test against Sitophilus granarius; details: read-out: percent mortality
Protocol: c. Test against Sitophilus granarius
This topical application test comprised preparing the test compounds in acetone solution at concentrations of 5000, 500 and 50 mg of the active compound per liter and 0.2 μl of the solutions were applied to the ventral thorax of 50 Sitophilus granarius for each concentration.

Panagrellus silusiae = test: Nematocidal activity against Panagrellus silusiae
Protocol: b. Activity against Panagrellus silusiae
30 nematodes were placed on a watch glass and three tests were run for each concentration. The 3 watch glasses for each treatment were placed in a Petri dish with a 15 cm diameter containing a film of water in a manner to retard evaporation of the solution to wet the nematodes. The concentration of the product was 125 mg of MA/L and 1 ml of toxic solution was placed on each watch glass containing the nematodes in 0.5 ml of water.

Musca domestica larvae = test: Contact-ingestion test against Musca domestica larvae; details: read-out: percent of mortality
Protocol: g. Activity against Musca domestica larvae
This contact-ingestion test consisted of placing 2 ml of an acetone solution of different concentrations of the test product on 1 g of bran placed in a watch glass and the solvent was evaporated. The treated bran was placed in a plastic dish and was admixed with 2 ml of milk. 20 3 to 4 day old larvae of Musca domestica were added to the bran and were held at 20° C and 30% relative humidity and 3 tests were conducted for each concentration.

Drosophila melanogaster = test: Vapor activity against Drosophila melanogaster; details: inhaled or nasal, read-out: percentage of mortality
Protocol: a. Activity against Drosophila melanogaster
This test measures the vapor activity of the compounds and the less than 48 hours old insects were placed in a Petri dish with a 10 cm diameter connected by a tergal screen to a crystallizer of the same diameter in which the test compound in acetone solution is placed. The said solution is evaporated after the insects have been placed and 3 tests with 25 insects were run for each concentration. The results are expressed in Table I as a percentage of mortality after 1, 2, 4 and 6 hours.

Spodoptera littoralis = test: Ingestion test against Spodoptera littoralis caterpillars; details: po, ingestion, read-out: percent of mortality
Protocol: e. Activity against Spodoptera littoralis
This test was effected with Spodoptera littoralis caterpillars 1 to 1.5 cm long and an average of 10 days old. In this ingestion test, 4 ml of an acetone solution of the test products was placed on lettuce rings with an 8 mm diameter which were placed in closed plastic dishes with a 5 cm diameter. 15 caterpillars were placed in each dish and were held at 20° C and 50% relative humidity and were fed when the insects had eaten the treated lettuce ring.

Musca domestica = test: Topical application activity against Musca domestica; details: read-out: percent of mortality
Protocol: d. Activity against Musca domestica
This topical application test consisted of placing a microliter of an acetone solution of the test product on the dorsal thorax of Musca domestica after having been put to sleep with ether. The insects were held at 20° C and 50% relative humidity and were fed milk and water.

[1] = system: Ditylenchus Myceliophagus; test: Acaricide activity, Ditylenchus Myceliophagus; details: 24 h, read-out: Percent of mortality after 24 hours
Protocol: In an apparatus containing 10 ml of an aqueous solution of the test product, 0.5 ml of water containing about 2000 acariens of Ditylenchus Myceliophagus were added thereto and the percent of mortality was determined by a binocular magnifying glass after 24 hours.

Work on `CCCCOc1nc(OP(=S)(OC)OC)c(C#N)s1` [Compound B, 2-n-butoxy-4-dimethoxythiophosphoryloxy-5-cyano-thiazole] yielded a mortality at 50 ppm (Sitophilus granarius; 4 H) of 0%, a mortality at 500 ppm (Sitophilus granarius; 4 H) of 96% and a mortality at 5000 ppm (Sitophilus granarius; 4 H) of 100%. It also gave a mortality at 50 ppm (Sitophilus granarius; 24 H) of 0%, a mortality at 500 ppm (Sitophilus granarius; 24 H) of 100% and a mortality at 5000 ppm (Sitophilus granarius; 24 H) of 100%. For the same molecule, the mortality at 50 ppm (Sitophilus granarius; 120 h, 5 Days) was 0%, the mortality at 500 ppm (Sitophilus granarius; 120 h, 5 Days) was 100% and the mortality at 5000 ppm (Sitophilus granarius; 120 h, 5 Days) was 100%. For the same molecule, the mortality at 1 µg/mL (Panagrellus silusiae; 0.001 g/l, 24 hours) was 89.3%, the mortality at 10 µg/mL (Panagrellus silusiae; 0.01 g/l, 24 hours) was 100% and the mortality at 100 µg/mL (Panagrellus silusiae; 24 h, read-out: % of mortality) was 100%. The mortality at 500 ppm (Musca domestica larvae; 48 H) was 88%, the mortality at 5000 ppm (Musca domestica larvae; 48 H) was 93% and the mortality at 500 ppm (Musca domestica larvae; 192 h, 8 Days) was 98%. For the same molecule, the mortality at 5000 ppm (Musca domestica larvae; 192 h, 8 Days) was 98%, the mortality at 5 ppm (Drosophila melanogaster; 1 H) was 0% and the mortality at 50 ppm (Drosophila melanogaster; 1 H) was 77%. The mortality at 500 ppm (Drosophila melanogaster; 1 H) was 100%, the mortality at 5 ppm (Drosophila melanogaster; 4 H) was 100% and the mortality at 50 ppm (Drosophila melanogaster; 4 H) was 100%. For the same molecule, the mortality at 500 ppm (Drosophila melanogaster; 4 H) was 100%, the mortality at 5 ppm (Drosophila melanogaster; 6 H) was 100% and the mortality at 50 ppm (Drosophila melanogaster; 6 H) was 100%. The mortality at 500 ppm (Drosophila melanogaster; 6 H) was 100%, the mortality at 125 ppm (Spodoptera littoralis; 1 H) was 0% and the mortality at 250 ppm (Spodoptera littoralis; 1 H) was 0%. The mortality at 500 ppm (Spodoptera littoralis; 1 H) was 0%, the mortality at 125 ppm (Spodoptera littoralis; 24 H) was 50% and the mortality at 250 ppm (Spodoptera littoralis; 24 H) was 100%. It also gave a mortality at 500 ppm (Spodoptera littoralis; 24 H) of 100%, a mortality at 125 ppm (Spodoptera littoralis; 48 H) of 90% and a mortality at 250 ppm (Spodoptera littoralis; 48 H) of 100%. For the same molecule, the mortality at 500 ppm (Spodoptera littoralis; 48 H) was 100%, the mortality at 500 ppm (Musca domestica; 1 H) was 96% and the mortality at 2500 ppm (Musca domestica; 1 H) was 100%. The mortality at 5000 ppm (Musca domestica; 1 H) was 100%, the mortality at 500 ppm (Musca domestica; 24 H) was 100% and the mortality at 2500 ppm (Musca domestica; 24 H) was 100%. The mortality at 5000 ppm (Musca domestica; 24 H) was 100%, the mortality at 1 µg/mL ([1]; 0.001 g/l) was 43.3% and the mortality at 10 µg/mL ([1]; 0.010 g/l) was 95.9%. The mortality at 100 µg/mL ([1]; 0.1 g/l) was 98.5%.

Source: patent publication US4020076A, “Novel phosphoryloxy-thiazoles” (priority 1974, dated 1977)
